Measurements published in patent US8450319B2, “Pyrrolopyridazinone compound” (Ube Industries, Ltd., priority 2006, dated 2013).

Key:
[1] = system: pulmonary neutrophil infiltration; assay: Pulmonary neutrophil infiltration-inhibiting activity in SD rats (LPS inhalation, MPO activity in BALF); assay type: in vivo; conditions: @3 mg/Kg, orally 15 minutes before LPS inhalation; BAL 4 hours after LPS; MPO activity as index; inhibiting rate relative to control
Experimental: Inhalation of lipopolysaccharide (hereinafter abbreviated to as LPS) was carried out by modifying the method of Moraes et al. (Br. J. Pharmacol., 123, 631 (1998)). SD rats (male, 5-weeks old, supplied by CHARLES RIVER LABORATORIES JAPAN, INC.) fasted 24 hours before administration of a compound were kept in a plastic cage, and inhalated LPS (L2880-500MG, available from SIGMA Inc.) (0.1 mg/ml) dissolved in physiological saline for 30 minutes. An ultrasonic nebulizer (NE-U12, manufactured by Omron Corporation) was used for inhalation.
A compound to be tested is dissolved (10 ml/Kg) in mixed solution of polyethylene glycol (hereinafter abbreviated to as PEG) and water, and orally administered 15 minutes before the inhalation of LPS. For the control group, 50% PEG solution was administered.
Bronchoalveolar lavage (hereinafter abbreviated to as BAL) was carried out as mentioned below 4 hours after the inhalation of LPS. […] 3.5 ml of physiological saline containing heparin (1 U/ml) was injected by using a disposable injection syringe (5 ml volume, manufactured by Terumo Corporation), and immediately recovered. This operation was repeated four times to obtain a bronchioalveolar lavage fluid (hereinafter abbreviated to as BALF). BALF was centrifugated (at 2500 rpm, 10 minutes, 4° C.), and 1 ml of 0.5% hexadecyltrimethylammonium bromide (030-02105, available from Wako Pure Chemical Industries, Ltd.) was added to the precipitated cells. Thereafter, a freeze-thaw operation (−80° C./37° C.) was repeated three times to destroy the cells.
As an index of a number of neutrophil, measurement of myeloperoxidase (hereinafter abbreviated to as MPO) activity was carried out as follows. Measurement of MPO activity was carried out by partially modifying the method of Krawisz et al. (GASTROENTEROLOGY, 1344 (1984)). To cell dissolved solution was added 50 mM phosphate buffer solution (pH 6.0) containing o-dianisidine hydrochloride (0.2 mg/ml) and 0.005% hydrogen peroxide, and change in absorbance at 450 nm was measured. As a MPO standard substance, MPO from human sputum (available from Elastin Products Company Inc.) was used. Measurement of absorbance was carried out by using a Microplate Reader (MTP-32, manufactured by Corona Electric Co., Ltd.).
An inhibiting rate of the compound to be tested relative to the control was calculated.

cynomulgus monkey = assay: Emetic action test in cynomulgus monkey; conditions: suspended in 0.5% aqueous methyl cellulose, administered nasally; emesis observed for 24 hours; 3 or 4 monkeys per dose
Experimental: The compound to be tested was suspended in 0.5% aqueous methyl cellulose solution (5 ml/Kg), and administered nasally.
With respect to each dose, each administered to 3 or 4 monkeys, and a dose in which emesis had not been admitted in all monkeys was made a maximum non-emesis dose.

Compound | Rat pulmonary neutrophil infiltration-inhibiting activity [1] | Monkey Maximum non-emesis dose (cynomulgus monkey) | melting point
CC#CCc1c(-c2ccc(OC(F)F)c(OC3CC3)c2)[nH]c2cn[nH]c(=O)c12 [Example 72, 3-(2-Butynyl)-2-(3-cyclopropoxy-4-difluoromethoxyphenyl)-1,5-dihydropyrrolo[2,3-d]pyridazin-4-one] | 76% | >10 mg/kg | 231 to 236 °C
O=c1[nH]ncc2[nH]c(-c3ccc(OC(F)F)c(OC4CC4)c3)c(CC3CC3)c12 [Example 15, 2-(3-Cyclopropoxy-4-difluoromethoxyphenyl)-3-cyclopropylmethyl-1,5-dihydropyrrolo[2,3-d]pyridazin-4-one] | 73% |  | 204 to 206 °C
O=c1[nH]ncc2[nH]c(-c3ccc(OC(F)F)c(OC4CC4)c3)c(COCCF)c12 [Example 61, 2-(3-Cyclopropoxy-4-difluoromethoxyphenyl)-3-(2-fluoroethoxymethyl)-1,5-dihydropyrrolo[2,3-d]pyridazin-4-one] | 59% |  | 
COCCc1c(-c2ccc(OC(F)F)c(OC3CC3)c2)[nH]c2cn[nH]c(=O)c12 [Example 66, 2-(3-Cyclopropoxy-4-difluoromethoxyphenyl)-3-(2-methoxyethyl)-1,5-dihydropyrrolo[2,3-d]pyridazin-4-one] | 69% | >10 mg/kg | 215 to 217 °C
O=c1[nH]ncc2[nH]c(-c3ccc(OC(F)F)c(OC4CC4)c3)c(Cc3ccccc3F)c12 [Example 22, 2-(3-Cyclopropoxy-4-difluoromethoxyphenyl)-3-(2-fluorobenzyl)-1,5-dihydropyrrolo[2,3-d]pyridazin-4-one] | 78% |  | 202 to 204 °C
